# Source: PMC8021118, “Shared recognition of citrullinated tenascin-C peptides by T and B cells in rheumatoid arthritis” (JCI Insight, 2021)
# Read-outs that look alike come from different tables or passages of the source. Where a SMILES comes first, the peptide text is derived from it. Where no end group is shown, it is not given here. [ ]: non-standard residue; d: D form. Cit = NC(=O)NCCC[C@H](N)C(=O)O
# How the values were obtained:
# [1] = biological target: HLA-DRB1*04:01 (Homo sapiens, UniProt P01903+P01911, A100K/A169T/F76Y/I96L/K127E/L162R/M171V/N62H/P40V/Q125Y/R42H/S133A/S149N/S66Y/V115G/V209L/W38E); test: Peptide competition binding assay to HLA-DRB1*04:01; details: for Binding to HLA-DRB1*04:01 (in words): 15-mer T cell peptides, EC50 cutoff for measurable binding 50 μM
# [2] = tested on: CD4+ T cells in PBMC from HLA-DRB1*04:01+ subjects; test: In vitro expansion of peptide-specific CD4+ T cells from PBMC and HLA class II tetramer staining; type: cell-based, human; details: for Immunogenicity: Supplemental Table 1, ability to elicit an immune response in vitro (tetramer staining after expansion); for T cell responses in vitro (in words): noncitrullinated 15-mer versions; for Responders (% in RA): RA subjects with positive in vitro response (>0.1% of CD4+ T cells tetramer+) of total tested, 10 μg/mL peptide, 14 days, n = 14, TNC44 and TNC59 n = 6
# From the text: TNC is a large protein (2110 amino acids in length) composed of an N-terminal assembly domain, 14.5 epidermal growth factor–like repeats (EGF-L), 8 constant fibronectin type III–like repeats (FNIII), and an additional 9 alternatively spliced FNIII elements, and a C-terminal fibrinogen-like globe (FBG) ([16]). Using a previously described algorithm ([9], [24]), we scanned the entire length of the TNC monomer and identified 64 arg-containing peptides with motifs that would predict to permit binding to HLA-DRB1*04:01 in either their noncitrullinated native form, citrullinated form, or both. Based on these predictions, we synthesized the citrullinated versions of these peptides and tested their ability to bind HLA-DRB1*04:01 and to elicit CD4^+ T cell expansion in vitro. Of the peptides synthesized, 8 cit-TNC peptides bound to HLA-DRB1*04:01 with moderate to high affinity (Table 1). Among these, cit-TNC17, cit-TNC22, cit-TNC45, cit-TNC50, and cit-TNC56 were determined to be the most immunogenic, based on their ability to drive epitope-specific T cell expansion, as measured by HLA class II tetramer (Tmr) staining of peripheral blood mononuclear cells (PBMC) from HLA-DRB1*04:01^+ subjects following 2 weeks of in vitro expansion (Table 1 and Supplemental Figure 1; supplemental material available online with this article; https://doi.org/10.1172/jci.insight.145217DS1).
# Recombinant HLA-DRB1*04:01 protein was produced by the BRI Tetramer Core as previously described ([56]). Soluble HLA-DRB1*04:01 monomer was purified from insect cell culture supernatants and biotinylated at a sequence-specific site using biotin ligase (Avidity) prior to dialysis into phosphate storage buffer. The biotinylated monomer was loaded with 0.2 mg/mL of peptide by incubating at 37°C for 72 hours in the presence of 2.5 mg/mL n-octyl β-D-glucopyranoside and 1 mM Pefabloc SC (Sigma-Aldrich). Peptide-loaded monomers were conjugated into Tmrs using fluorescently labeled streptavidin (Invitrogen) for 6–18 hours at room temperature at a molar ratio of 8:1.
# Cryopreserved PBMCs from RA and healthy subjects were cultured at 5 × 10^6 cells/well in a 48-well plate in RPMI-1640 + 10% HPS with 10 μg/mL of peptide. IL-2 (Novartis) was added at 325 IU/mL on day 6. On day 14, cells were stained for expression of Tmr-PE, CD25 APC (BD Biosciences), and CD4 FITC (BioLegend) (Supplemental Table 8) and then run on a FACSCanto. The data were analyzed by FlowJo software version 10.
# [3] = Supplemental Table 1, citrullinated (X) vs arginine (R) versions, cutoff in the peptide binding assay 50 μM
compound,measurement,setting,value
PDGFRLSWTADEGVF [TNC-45R],EC50,[1]; [3],5.7 µM
same,Immunogenicity,[2],Yes
VESFRITYVPITGGT [TNC-50R],EC50,[1]; [3],1 µM
same,Immunogenicity,[2],Yes
"CQGQYELRVDLRDHGETAFC [arg-TNC56, Cys-flanked arginine TNC56 peptide used in ELISA]",Binding to HLA-DRB1*04:01 (in words),[1],did not
"CVSDATPDGFRLSWTADEGC [arg-TNC45, Cys-flanked arginine TNC45 peptide used in ELISA]",Binding to HLA-DRB1*04:01 (in words),[1],bound
same,T cell responses in vitro (in words),[2],had the ability to elicit T cell responses in vitro
CC(C)C[C@H](NC(=O)[C@H](CCC(=O)O)NC(=O)[C@H](Cc1ccc(O)cc1)NC(=O)[C@H](CCC(N)=O)NC(=O)CNC(=O)[C@@H](N)CCC(N)=O)C(=O)N[C@@H](CCCNC(N)=O)C(=O)N[C@H](C(=O)N[C@@H](CC(=O)O)C(=O)N[C@@H](CC(C)C)C(=O)N[C@@H](CCCNC(=N)N)C(=O)N[C@@H](CC(=O)O)C(=O)N[C@@H](Cc1c[nH]cn1)C(=O)NCC(=O)N[C@@H](CCC(=O)O)C(=O)O)C(C)C [TNC-56XR] (H-QGQYEL[Cit]VDLRDHGE-OH),EC50,[1]; [3],8.7 µM
CC(C)C[C@H](NC(=O)[C@H](CCC(=O)O)NC(=O)[C@H](Cc1ccc(O)cc1)NC(=O)[C@H](CCC(N)=O)NC(=O)CNC(=O)[C@@H](N)CCC(N)=O)C(=O)N[C@@H](CCCNC(=N)N)C(=O)N[C@H](C(=O)N[C@@H](CC(=O)O)C(=O)N[C@@H](CC(C)C)C(=O)N[C@@H](CCCNC(N)=O)C(=O)N[C@@H](CC(=O)O)C(=O)N[C@@H](Cc1c[nH]cn1)C(=O)NCC(=O)N[C@@H](CCC(=O)O)C(=O)O)C(C)C [TNC-56RX] (H-QGQYELRVDL[Cit]DHGE-OH),EC50,[1]; [3],> 50 µM
"CPTAQVESFRITYVPITGGC [arg-TNC50, Cys-flanked arginine TNC50 peptide used in ELISA]",Binding to HLA-DRB1*04:01 (in words),[1],bound
same,T cell responses in vitro (in words),[2],had the ability to elicit T cell responses in vitro
"CTPLAKFDRYRLNYSLPTGC [arg-TNC22, Cys-flanked arginine TNC22 peptide used in ELISA]",Binding to HLA-DRB1*04:01 (in words),[1],bound
same,T cell responses in vitro (in words),[2],had the ability to elicit T cell responses in vitro
CC(C)C[C@H](NC(=O)[C@H](CCC(=O)O)NC(=O)[C@H](Cc1ccc(O)cc1)NC(=O)[C@H](CCC(N)=O)NC(=O)CNC(=O)[C@@H](N)CCC(N)=O)C(=O)N[C@@H](CCCNC(N)=O)C(=O)N[C@H](C(=O)N[C@@H](CC(=O)O)C(=O)N[C@@H](CC(C)C)C(=O)N[C@@H](CCCNC(N)=O)C(=O)N[C@@H](CC(=O)O)C(=O)N[C@@H](Cc1c[nH]cn1)C(=O)NCC(=O)N[C@@H](CCC(=O)O)C(=O)O)C(C)C [TNC56] (H-QGQYEL[Cit]VDL[Cit]DHGE-OH),EC50,[1],9 µM
CC(C)C[C@H](NC(=O)[C@H](CCCNC(N)=O)NC(=O)[C@H](Cc1ccc(O)cc1)NC(=O)[C@H](CCCNC(=N)N)NC(=O)[C@H](CC(=O)O)NC(=O)[C@@H](N)Cc1ccccc1)C(=O)N[C@@H](CC(N)=O)C(=O)N[C@@H](Cc1ccc(O)cc1)C(=O)N[C@@H](CO)C(=O)N[C@@H](CC(C)C)C(=O)N1CCC[C@H]1C(=O)N[C@H](C(=O)NCC(=O)N[C@@H](CCC(N)=O)C(=O)N[C@@H](Cc1c[nH]c2ccccc12)C(=O)O)[C@@H](C)O [TNC-22RX] (H-FDRY[Cit]LNYSLPTGQW-OH),EC50,[1]; [3],0.9 µM
same,Immunogenicity,[2],Yes
"CEYEVSLISRRGDMSSNPAC [arg-TNC17, Cys-flanked arginine TNC17 peptide used in ELISA]",Binding to HLA-DRB1*04:01 (in words),[1],did not
CC[C@H](C)[C@H](NC(=O)[C@H](CC(C)C)NC(=O)[C@H](CO)NC(=O)[C@@H](N)C(C)C)C(=O)N[C@@H](CO)C(=O)N[C@@H](CCCNC(N)=O)C(=O)N[C@@H](CCCNC(=N)N)C(=O)NCC(=O)N[C@@H](CC(=O)O)C(=O)N[C@@H](CCSC)C(=O)N[C@@H](CO)C(=O)N[C@@H](CO)C(=O)N[C@@H](CC(N)=O)C(=O)N1CCC[C@H]1C(=O)N[C@@H](C)C(=O)O [TNC-17XR] (H-VSLIS[Cit]RGDMSSNPA-OH),EC50,[1]; [3],> 50 µM
CC[C@H](C)[C@H](NC(=O)[C@H](CC(C)C)NC(=O)[C@H](CO)NC(=O)[C@@H](N)C(C)C)C(=O)N[C@@H](CO)C(=O)N[C@@H](CCCNC(N)=O)C(=O)N[C@@H](CCCNC(N)=O)C(=O)NCC(=O)N[C@@H](CC(=O)O)C(=O)N[C@@H](CCSC)C(=O)N[C@@H](CO)C(=O)N[C@@H](CO)C(=O)N[C@@H](CC(N)=O)C(=O)N1CCC[C@H]1C(=O)N[C@@H](C)C(=O)O [TNC17] (H-VSLIS[Cit][Cit]GDMSSNPA-OH),EC50,[1],3.6 µM
FDRYRLNYSLPTGQW [TNC-22RR],EC50,[1]; [3],1 µM
same,Immunogenicity,[2],Yes
H-QGQYELRVDLRDHGE-OH [TNC-56RR],EC50,[1]; [3],> 50 µM
CSCC[C@H](NC(=O)[C@@H](N)CO)C(=O)N[C@@H](C)C(=O)N[C@@H](Cc1ccc(O)cc1)C(=O)N[C@@H](Cc1c[nH]cn1)C(=O)N[C@@H](CC(N)=O)C(=O)NCC(=O)N[C@@H](CCCNC(N)=O)C(=O)N[C@@H](CO)C(=O)N[C@@H](Cc1ccccc1)C(=O)N[C@@H](CO)C(=O)N[C@H](C(=O)N[C@@H](Cc1ccccc1)C(=O)N[C@@H](CC(=O)O)C(=O)N[C@@H](CCCCN)C(=O)O)[C@@H](C)O [TNC59] (H-SMAYHNG[Cit]SFSTFDK-OH),EC50,[1],25 µM
same,Responders (% in RA),[2],33%
CC[C@H](C)[C@H](NC(=O)[C@H](CCC(=O)O)NC(=O)[C@H](C)NC(=O)[C@H](CCCNC(N)=O)NC(=O)[C@H](CC(C)C)NC(=O)[C@@H]1CCCN1C(=O)[C@H](CCCCN)NC(=O)[C@@H](N)[C@@H](C)O)C(=O)N[C@H](C(=O)N[C@H](C(=O)N[C@@H](CCC(=O)O)C(=O)N[C@@H](C)C(=O)N[C@@H](CCC(=O)O)C(=O)N1CCC[C@H]1C(=O)N[C@@H](CCC(=O)O)C(=O)O)[C@@H](C)O)C(C)C [TNC44] (H-TKPL[Cit]AEIVTEAEPE-OH),EC50,[1],33.3 µM
same,Responders (% in RA),[2],33%
H-VSLISRRGDMSSNPA-OH [TNC-17RR],EC50,[1]; [3],> 50 µM
CC[C@H](C)[C@H](NC(=O)[C@H](C)NC(=O)[C@@H]1CCCN1C(=O)[C@H](CCC(N)=O)NC(=O)[C@H](Cc1c[nH]c2ccccc12)NC(=O)[C@H](CCCNC(N)=O)NC(=O)[C@H](C)NC(=O)[C@@H](N)CC(C)C)C(=O)N[C@@H](C)C(=O)N[C@H](C(=O)N[C@H](C(=O)N[C@@H](CC(=O)O)C(=O)N[C@@H](CO)C(=O)N[C@@H](Cc1ccc(O)cc1)C(=O)N[C@H](C(=O)O)C(C)C)C(C)C)[C@@H](C)O [TNC52] (H-LA[Cit]WQPAIATVDSYV-OH),EC50,[1],28.8 µM
same,Responders (% in RA),[2],33%
CC[C@H](C)[C@H](NC(=O)[C@H](CC(C)C)NC(=O)[C@H](CO)NC(=O)[C@@H](N)C(C)C)C(=O)N[C@@H](CO)C(=O)N[C@@H](CCCNC(=N)N)C(=O)N[C@@H](CCCNC(N)=O)C(=O)NCC(=O)N[C@@H](CC(=O)O)C(=O)N[C@@H](CCSC)C(=O)N[C@@H](CO)C(=O)N[C@@H](CO)C(=O)N[C@@H](CC(N)=O)C(=O)N1CCC[C@H]1C(=O)N[C@@H](C)C(=O)O [TNC-17RX] (H-VSLISR[Cit]GDMSSNPA-OH),EC50,[1]; [3],4.7 µM
CC(C)C[C@H](NC(=O)[C@H](CCCNC(=N)N)NC(=O)[C@H](Cc1ccc(O)cc1)NC(=O)[C@H](CCCNC(N)=O)NC(=O)[C@H](CC(=O)O)NC(=O)[C@@H](N)Cc1ccccc1)C(=O)N[C@@H](CC(N)=O)C(=O)N[C@@H](Cc1ccc(O)cc1)C(=O)N[C@@H](CO)C(=O)N[C@@H](CC(C)C)C(=O)N1CCC[C@H]1C(=O)N[C@H](C(=O)NCC(=O)N[C@@H](CCC(N)=O)C(=O)N[C@@H](Cc1c[nH]c2ccccc12)C(=O)O)[C@@H](C)O [TNC-22XR] (H-FD[Cit]YRLNYSLPTGQW-OH),EC50,[1]; [3],0.6 µM
same,Immunogenicity,[2],Yes
